In ChEMBL document CHEMBL5329206 (Bioorg Med Chem, 2023):
Calls of active or inactive are those of the source. The rule behind the calls is not given here. Where a SMILES comes first, the peptide text is derived from it.

Legend:
[1] = target: Replicase polyprotein 1ab (Severe acute respiratory syndrome coronavirus 2, UniProt P0DTD1); assay: Inhibition of SARS-CoV-2 MPro using protease substrate preincubated with enzyme for 10 mins followed by substrate addition and measured after 5 mins by FRET based assay
[2] = target: Replicase polyprotein 1ab (Severe acute respiratory syndrome coronavirus 2) (UniProt P0DTD1); assay: Inhibition of SARS-CoV-2 MPro using protease substrate at 1 uM preincubated with enzyme for 10 mins followed by substrate addition and measured after 5 mins by FRET based assay; conditions: time 15.0 min
[3] = test system: SARS-CoV-2; assay: Antiviral activity against SARS-CoV-2 infected in African green monkey Vero E6 cells assessed as inhibition of viral infection preincubated for 1 hr followed by incubation in methylcellulose medium for 25 to 26 hrs by TrueBlue based EliSpot analysis; assay type: functional, organism-based; conditions: Severe acute respiratory syndrome coronavirus 2, Vero C1008
[4] = Cytotoxicity against African green monkey Vero E6 cells assessed as cell growth inhibition measured after 48 hrs by CCK8 assay; assay type: toxicity, cell-based, Vero C1008; conditions: chlorocebus sabaeus
[5] = target: T1, Cathepsin K (Homo sapiens, UniProt P43235); assay: Inhibition of human Cathepsin K at 20 uM measured after 30 mins by fluorescence based microplate reader analysis relative to control; assay type: toxicity; conditions: human Cathepsin K enzyme
T1 sequence (P43235 whole entry): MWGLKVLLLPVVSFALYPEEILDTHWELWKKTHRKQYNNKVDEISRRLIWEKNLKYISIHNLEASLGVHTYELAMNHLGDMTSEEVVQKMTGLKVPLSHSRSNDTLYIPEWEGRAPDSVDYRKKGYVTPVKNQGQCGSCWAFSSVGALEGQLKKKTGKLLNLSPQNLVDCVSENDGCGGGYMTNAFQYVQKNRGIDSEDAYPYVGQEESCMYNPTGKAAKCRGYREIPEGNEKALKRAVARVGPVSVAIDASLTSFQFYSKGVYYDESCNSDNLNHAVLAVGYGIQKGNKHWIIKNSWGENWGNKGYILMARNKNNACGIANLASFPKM

[6] = test system: SARS-CoV-2; assay: Antiviral activity against SARS-CoV-2; assay type: functional, organism-based; conditions: Severe acute respiratory syndrome coronavirus 2
[7] = target: Cathepsin B (Homo sapiens, UniProt P07858); assay: Inhibition of human Cathepsin B at 20 uM measured after 30 mins by fluorescence based microplate reader analysis relative to control; assay type: toxicity; conditions: human Cathepsin B enzyme
[8] = target: T1, Cathepsin K; assay: Inhibition of human Cathepsin K measured after 30 mins by fluorescence based microplate reader analysis relative to control; assay type: toxicity
[9] = target: Replicase polyprotein 1ab (Severe acute respiratory syndrome coronavirus 2) (UniProt P0DTD1); assay: Inhibition of SARS-CoV-2 MPro using protease substrate at 5 uM preincubated with enzyme for 10 mins followed by substrate addition and measured after 5 mins by FRET based assay; conditions: time 15.0 min
[10] = target: Replicase polyprotein 1ab (Severe acute respiratory syndrome coronavirus 2) (UniProt P0DTD1); assay: Inhibition of SARS-CoV-2 MPro using protease substrate at 5 uM preincubated with enzyme for 10 mins followed by substrate addition and measured after 5 mins in presence of 4 mM DTT by FRET based assay; conditions: time 15.0 min
[11] = target: Replicase polyprotein 1ab (Severe acute respiratory syndrome coronavirus 2) (UniProt P0DTD1); assay: Covalent inhibition of SARS-Cov-2 MPro using protease substrate at 1 uM preincubated with enzyme for 5 to 80 mins followed by substrate addition and measured every 10s for 10 mins by FRET based assay; conditions: time 15-90 min, TDE = time-dependent effect

Row | Structure (SMILES) | IC50 [1] [nM] | inhibition [2] | further results
1 | O=c1c2ccccc2[se]n1C1CCN(S(=O)(=O)C2CC2)CC1 | 356 | 96.2% | EC50 [3]: > 20000 nM; CC50 at 48 h [4]: 27500 nM
2 | CCOC(=O)c1ccc(-n2[se]c3ccccc3c2=O)cc1 | – | 68.4% | inhibition at 0.5 h, 20 µM [5]: 5%
3 | O=C(NC1CCCC1)C(=O)[C@H](C[C@@H]1CCNC1=O)NC(=O)[C@@H]1[C@H]2CCC[C@H]2CN1C(=O)[C@@H](NC(=O)C(F)(F)F)C1CCCCC1 | – | – | EC50 [6]: 95 nM
4 | CC(=O)N[C@@H](CC(C)C)C(=O)N[C@H](C(=O)N[C@H](C=O)CCCCN)C(C)C (Ac-Leu-Val-Lys-aldehyde) | – | – | inhibition at 0.5 h, 20 µM [7]: 99%
5 | O=C(Nc1ccc(-n2[se]c3ccccc3c2=O)cc1)C1CC1 | 490 | 95.5% | –
6 | CS(=O)(=O)Nc1ccc(C(=O)Nc2ccc(-n3[se]c4ccccc4c3=O)cc2)cc1 | – | inactive | –
7 | O=c1c2ccccc2[se]n1C1CCN(S(=O)(=O)c2cccnc2)CC1 | 268 | 101% | inhibition at 0.5 h, 20 µM [7]: 4%; IC50 [8]: > 20000 nM; EC50 [3]: > 13300 nM; CC50 at 48 h [4]: 13300 nM
8 | CC(C)(C)OC(=O)N1CCC(n2[se]c3ccccc3c2=O)CC1 | 417 | 85.2% | –
9 | Nc1ccc2[se]n(-c3ccccc3)c(=O)c2c1 | – | 21.8% | –
10 | CC(C)(F)C[C@H](N[C@@H](c1ccc(-c2ccc(S(C)(=O)=O)cc2)cc1)C(F)(F)F)C(=O)NC1(C#N)CC1 [ODANACATIB] | – | – | inhibition at 0.5 h, 20 µM [5]: 96%
11 | O=C(Nc1ccc2c(=O)n(-c3ccccc3)[se]c2c1)c1cccs1 | – | 38.9% | –
12 | O=c1c2ccccc2[se]n1Cc1ccc2[nH]ccc2c1 | – | 32.6% | –
13 | O=c1c2ccccc2[se]n1-c1ccccc1 [EBSELEN] | – | 88.3% | inhibition at 0.5 h, 20 µM [7]: 62%; inhibition [9]: Active; inhibition [10]: inactive; IC50 [8]: > 20000 nM; inhibition at 0.5 h, 20 µM [5]: 38%; inhibition [11]: Tde; EC50 [3]: 3780 nM; CC50 at 48 h [4]: 70500 nM
14 | O=c1c2ccccc2[se]n1Cc1ccccc1 | 364 | 95.5% | EC50 [3]: 8010 nM; CC50 at 48 h [4]: > 100000 nM
15 | O=c1c2ccccc2[se]n1C1CCN(S(=O)(=O)c2cccs2)CC1 | – | 67.8% | –
16 | O=c1c2ccc([N+](=O)[O-])cc2[se]n1-c1ccccc1 | – | 49.2% | –
17 | O=C(OCc1ccccc1)N1CCC(n2[se]c3ccccc3c2=O)CC1 | – | 71.2% | –
18 | CC(C)(C)OC(=O)Nc1ccc(-n2[se]c3ccccc3c2=O)cc1 | – | 32.1% | –
19 | O=c1c2ccccc2[se]n1Cc1ccc2ccccc2c1 | – | 34.6% | –
20 | O=c1c2ccccc2[se]n1C1CCN(S(=O)(=O)c2cccc(Cl)c2)CC1 | – | 24.7% | –
21 | O=c1c2ccccc2[se]n1-c1ccc(NS(=O)(=O)C2CC2)cc1 | 528 | 89.7% | inhibition [9]: Active; inhibition [10]: inactive
22 | O=c1c2ccccc2[se]n1Cc1ccncc1 | 287 | 97.4% | inhibition at 0.5 h, 20 µM [7]: 87%; inhibition [9]: Active; inhibition [10]: inactive; IC50 [8]: > 20000 nM; inhibition at 0.5 h, 20 µM [5]: 42%; EC50 [3]: > 20000 nM; CC50 at 48 h [4]: 55700 nM
23 | O=c1c2ccccc2[se]n1C1CCNCC1 | – | 57.5% | –
24 | NS(=O)(=O)c1ccc(C(=O)N2CCC(n3[se]c4ccccc4c3=O)CC2)cc1 | 550 | 88.3% | –
25 | O=c1c2cc([N+](=O)[O-])ccc2[se]n1-c1ccccc1 | – | 18.8% | –
26 | O=c1c2ccccc2[se]n1Cc1cccnc1 | 459 | 80.6% | –
27 | CN(C)S(=O)(=O)Nc1ccc(-n2[se]c3ccccc3c2=O)cc1 | 233 | 91.8% | inhibition [9]: Active; inhibition [10]: inactive; inhibition [11]: Tde; EC50 [3]: > 9910 nM; CC50 at 48 h [4]: 9910 nM
28 | Nc1ccc2c(=O)n(-c3ccccc3)[se]c2c1 | 322 | 87% | inhibition [9]: Active; inhibition [10]: inactive
